Patent publication US20140073639A1 (priority 2012, published 2014)

Columns and labels:
[1] = tested on: B. Anthracis; experiment: microbe, parasite or virus in culture; assay type: cell-based; settings: for inhibition at 10 µM / inhibition at 30 µM / inhibition at 3 µM: Bacillus anthracis; for inhibition at 10 µM: read-out: B. Anthracis 10 μM (growth inhibition); for inhibition at 30 µM: read-out: B. Anthracis 30 μM (growth inhibition); for inhibition at 3 µM: read-out: B. Anthracis 3 μM (growth inhibition)
[2] = tested on: S. MRSA; experiment: microbe, parasite or virus in culture; assay type: cell-based; settings: for inhibition at 10 µM / inhibition at 30 µM / inhibition at 3 µM: Staphylococcus aureus, MRSA; for inhibition at 10 µM: read-out: S. MRSA 10 μM (growth inhibition); for inhibition at 30 µM: read-out: S. MRSA 30 μM (growth inhibition); for inhibition at 3 µM: read-out: S. MRSA 3 μM (growth inhibition)

Question: Which results are given for `O=C1NC(=S)S/C1=C/c1ccc(-c2ccc3c(c2)C(=O)NC3=O)o1` [Cmpd 3]?
Answer: inhibition at 10 µM [1]: 13.7%; inhibition at 30 µM ([1]; 30 μM): 87.5%; inhibition at 10 µM [2]: -0.59%; inhibition at 30 µM [2]: 61.2%

Question: Which results are given for `O=C1NC(=S)NC(=O)C1=Cc1ccc(Br)s1` [Cmpd 1]?
Answer: inhibition at 10 µM [1]: -12.4%; inhibition at 30 µM ([1]; 30 μM): 8.74%; inhibition at 10 µM [2]: 6.62%; inhibition at 30 µM [2]: 22.1%

Question: Which inhibition at 10 µM [1] does the source give for `O=C1Nc2ccccc2/C1=C1/SC(=S)N(C(Cc2ccccc2)C(=O)O)C1=O` (stereo not shown) [Cmpd 6] here?
Answer: Its inhibition at 10 µM is 19.6%.

Question: And the inhibition at 30 µM ([1]; 30 μM)?
Answer: The inhibition at 30 µM was 92.6%.

Question: What about the inhibition at 10 µM [2] of the same compound?
Answer: The inhibition at 10 µM was 45.7%.

Question: What about the inhibition at 30 µM [2] of the same compound?
Answer: Its inhibition at 30 µM is 47.8%.

Question: How did the “B. Anthracis 10 μM (growth inhibition)” value [1] turn out when `O=C1Nc2ccc(Br)cc2/C1=C1/SC(=S)N(C(Cc2ccccc2)C(=O)O)C1=O` (stereo not shown) [Cmpd 22] was run?
Answer: Its value is 83.27.

Question: And the “B. Anthracis 30 μM (growth inhibition)” value ([1]; 30 μM)?
Answer: Its value is 90.11.

Question: What about the “S. MRSA 10 μM (growth inhibition)” value [2] of the same compound?
Answer: The value was 10.74.

Question: What about the “S. MRSA 30 μM (growth inhibition)” value [2] of the same compound?
Answer: The value was 86.76.

Question: What does the source list for `O=C(O)CC(C(=O)O)N1C(=O)/C(=C2/C(=O)Nc3ccc(Br)cc32)SC1=S` (stereo not shown) [Cmpd 21]?
Answer: inhibition at 3 µM [1]: 15.8%; inhibition at 10 µM [1]: 13.1%; inhibition at 30 µM ([1]; 30 μM): 14.2%; inhibition at 3 µM [2]: -6.99%; inhibition at 10 µM [2]: -2.11%; inhibition at 30 µM [2]: -2.11%

Question: Which inhibition at 3 µM [1] does the source give for `O=C1NC(=S)NC(=O)C1=Cc1ccc(-c2cccc(C(=O)O)c2)o1` [Cmpd 28] here?
Answer: Its inhibition at 3 µM is -9.26%.

Question: What about the inhibition at 10 µM [1] of the same compound?
Answer: Its inhibition at 10 µM is -3.09%.

Question: What about the inhibition at 30 µM ([1]; 30 μM) of the same compound?
Answer: Its inhibition at 30 µM is -13.1%.

Question: What about the inhibition at 3 µM [2] of the same compound?
Answer: Its inhibition at 3 µM is -0.74%.

Question: And the inhibition at 10 µM [2]?
Answer: Its inhibition at 10 µM is -2.21%.

Question: What about the inhibition at 30 µM [2] of the same compound?
Answer: Its inhibition at 30 µM is -3.68%.

Question: For `O=C1NC(=S)NC(=O)C1=Cc1ccc(-c2ccc(Cl)cc2)o1` [Cmpd 15], which inhibition at 10 µM [1] is on record?
Answer: Its inhibition at 10 µM is 3.62%.

Question: And the inhibition at 30 µM ([1]; 30 μM)?
Answer: The inhibition at 30 µM was 42.2%.

Question: And the inhibition at 10 µM [2]?
Answer: Its inhibition at 10 µM is 20%.

Question: What about the inhibition at 30 µM [2] of the same compound?
Answer: The inhibition at 30 µM was 63.2%.

Question: What does the source list for `O=C1NC(=S)NC(=O)C1=Cc1ccc(Br)cc1` [Cmpd 16]?
Answer: inhibition at 3 µM [1]: 0%; inhibition at 10 µM [1]: 0%; inhibition at 30 µM ([1]; 30 μM): 0%; inhibition at 3 µM [2]: 13.6%; inhibition at 10 µM [2]: 12%; inhibition at 30 µM [2]: 8.76%

Question: Which inhibition at 3 µM [1] does the source give for `O=C(O)C(Cc1ccccc1)N1C(=O)/C(=C\c2ccc(-c3ccc(Cl)cc3)s2)NC1=S` (stereo not shown) [Cmpd 35] here?
Answer: The inhibition at 3 µM was -5.4%.

Question: And the inhibition at 10 µM [1]?
Answer: The inhibition at 10 µM was 100%.

Question: What about the inhibition at 30 µM ([1]; 30 μM) of the same compound?
Answer: Its inhibition at 30 µM is 100%.

Question: And the inhibition at 3 µM [2]?
Answer: Its inhibition at 3 µM is -2.94%.

Question: And the inhibition at 10 µM [2]?
Answer: Its inhibition at 10 µM is -1.47%.

Question: And the inhibition at 30 µM [2]?
Answer: Its inhibition at 30 µM is 91%.

Question: How did the inhibition at 3 µM [1] turn out when `O=C1NC(=O)C(=Cc2ccc(Br)o2)C(=O)N1` [Cmpd 19] was run?
Answer: Its inhibition at 3 µM is 3.33%.

Question: What about the inhibition at 10 µM [1] of the same compound?
Answer: The inhibition at 10 µM was 10.7%.

Question: And the inhibition at 30 µM ([1]; 30 μM)?
Answer: Its inhibition at 30 µM is 12.9%.

Question: What about the inhibition at 3 µM [2] of the same compound?
Answer: The inhibition at 3 µM was -1.4%.

Question: What about the inhibition at 10 µM [2] of the same compound?
Answer: Its inhibition at 10 µM is 2%.

Question: What about the inhibition at 30 µM [2] of the same compound?
Answer: The inhibition at 30 µM was 12.6%.

Question: Which inhibition at 10 µM [1] does the source give for `CN1C(=O)/C(=C/c2ccc(-c3ccc(Br)c(Cl)c3)o2)C(=O)NC1=S` [Cmpd 29] here?
Answer: The inhibition at 10 µM was 80%.

Question: What about the inhibition at 30 µM ([1]; 30 μM) of the same compound?
Answer: The inhibition at 30 µM was 90.1%.

Question: What about the inhibition at 10 µM [2] of the same compound?
Answer: The inhibition at 10 µM was 52.9%.

Question: What about the inhibition at 30 µM [2] of the same compound?
Answer: Its inhibition at 30 µM is 86.8%.

Question: `O=C1Nc2ccc(Br)cc2/C1=C1/SC(=S)N(C(Cc2ccccc2)C(=O)O)C1=O` (stereo not shown) [Cmpd 13] was tested. Which “B. Anthracis 10 μM (growth inhibition)” value [1] did it give?
Answer: Its value is 10.27.

Question: What about the inhibition at 30 µM ([1]; 30 μM) of the same compound?
Answer: Its inhibition at 30 µM is 90.1%.

Question: And the “S. MRSA 10 μM (growth inhibition)” value [2]?
Answer: Its value is −0.58.

Question: And the “S. MRSA 30 μM (growth inhibition)” value [2]?
Answer: Its value is 30.29.

Question: What does the source list for `O=C(O)C(Cc1ccccc1)N1C(=O)/C(=C\c2ccc(-c3ccc(Cl)c(Cl)c3)o2)NC1=S` (stereo not shown) [Cmpd 42]?
Answer: inhibition at 3 µM [1]: 96.2%; inhibition at 10 µM [1]: 99.5%; inhibition at 30 µM ([1]; 30 μM): 96.7%; inhibition at 10 µM [2]: 98.7%; inhibition at 30 µM [2]: 94.5%

Question: For `O=C1NC(=O)N(Cc2ccc(F)cc2)C(=O)/C1=C/c1ccc(Br)s1` [Cmpd 10], which inhibition at 10 µM [1] is on record?
Answer: The inhibition at 10 µM was 10.3%.

Question: What about the inhibition at 30 µM ([1]; 30 μM) of the same compound?
Answer: Its inhibition at 30 µM is 68.2%.

Question: What about the inhibition at 10 µM [2] of the same compound?
Answer: The inhibition at 10 µM was 14.8%.

Question: And the inhibition at 30 µM [2]?
Answer: Its inhibition at 30 µM is 62.2%.

Question: For `O=C(O)C(Cc1ccccc1)N1C(=O)/C(=C\c2ccc(-c3ccc(I)cc3)o2)NC1=S` (stereo not shown) [Cmpd 45], which inhibition at 3 µM [1] is on record?
Answer: Its inhibition at 3 µM is 49.2%.

Question: And the inhibition at 10 µM [1]?
Answer: Its inhibition at 10 µM is 97.4%.

Question: What about the inhibition at 30 µM ([1]; 30 μM) of the same compound?
Answer: The inhibition at 30 µM was 96.4%.

Question: And the inhibition at 3 µM [2]?
Answer: Its inhibition at 3 µM is -1.84%.

Question: And the inhibition at 10 µM [2]?
Answer: The inhibition at 10 µM was 88.2%.

Question: And the inhibition at 30 µM [2]?
Answer: Its inhibition at 30 µM is 92.7%.

Question: What does the source list for `O=C(O)C(Cc1ccccc1)N1C(=O)/C(=C\c2ccc(-c3ccc(Br)cc3)s2)NC1=S` (stereo not shown) [Cmpd 36]?
Answer: inhibition at 3 µM [1]: 76.9%; inhibition at 10 µM [1]: 97.7%; inhibition at 30 µM ([1]; 30 μM): 96.7%; inhibition at 3 µM [2]: -19.2%; inhibition at 10 µM [2]: 91.1%; inhibition at 30 µM [2]: 91.1%
